Publication PMC9596378, “Discovery and molecular basis of subtype-selective cyclophilin inhibitors” (Nature Chemical Biology, 2022)
“And” between values parts separate entries of the source, which are not always exact repeats. Equal values may be shown once. Read-outs that look alike come from different tables or passages of the source.

Tests used:
Experiment in all cases: Chymotrypsin coupled prolyl-isomerase assay;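 for Cyp40 prolyl-isomerase raw dose-response reading (Fig. 6c): observed rate constant per well from one-phase association fit in s−1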;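 for CypD prolyl-isomerase raw dose-response reading (Fig. 6c): observed rate constant per well from one-phase association fit in s−1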;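 for NKTR prolyl-isomerase raw dose-response reading (Fig. 6c): Per-well observed rate constant from one-phase association fit in s−1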;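 for PPWD1 prolyl-isomerase raw dose-response reading (Fig. 6c): Per-well observed rate constant from one-phase association fit in s−1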
CypD = CypD (Homo sapiens, UniProt P30405);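 for CypD prolyl-isomerase raw dose-response reading (Fig. 6c): observed rate constant per well from one-phase association fit in s−1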
Chain of CypD (P30405 45-207): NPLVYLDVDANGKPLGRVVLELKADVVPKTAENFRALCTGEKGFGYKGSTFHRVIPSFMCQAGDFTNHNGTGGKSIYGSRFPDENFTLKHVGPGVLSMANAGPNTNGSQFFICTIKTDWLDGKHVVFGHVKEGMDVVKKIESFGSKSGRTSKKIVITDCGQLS

Cyp40 = Cyp40 (Homo sapiens, UniProt Q08752);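 for Cyp40 prolyl-isomerase raw dose-response reading (Fig. 6c): observed rate constant per well from one-phase association fit in s−1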
Chain of Cyp40 (Q08752 1-183): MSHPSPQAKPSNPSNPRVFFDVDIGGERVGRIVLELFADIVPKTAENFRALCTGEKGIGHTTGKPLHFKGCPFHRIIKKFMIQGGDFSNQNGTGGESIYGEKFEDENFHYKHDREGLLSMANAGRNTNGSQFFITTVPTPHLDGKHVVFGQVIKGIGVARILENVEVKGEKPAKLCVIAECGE
Outline: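 5 nM Cyp, HEPES pH 7.3/NaCl/Triton buffer, 2–3 °C; cpd 5 min, chymotrypsin 25 µM 5 min, then Suc-AAPF-AMC 5 µM in LiCl/TFE. Kinetic fluorescence 330 s. Per-well rate constants, normalized, IC50 from nonlinear fit.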

NKTR = target: T1, NKTR (Homo sapiens, UniProt P30414); type: biochemical;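 for NKTR prolyl-isomerase raw dose-response reading (Fig. 6c): Per-well observed rate constant from one-phase association fit in s−1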
T1 construct: NKTR (UniProtKB Entry P30414: residues 7–179); host or cells: E. coli BL21(DE3)
T1 sequence (P30414 7-179): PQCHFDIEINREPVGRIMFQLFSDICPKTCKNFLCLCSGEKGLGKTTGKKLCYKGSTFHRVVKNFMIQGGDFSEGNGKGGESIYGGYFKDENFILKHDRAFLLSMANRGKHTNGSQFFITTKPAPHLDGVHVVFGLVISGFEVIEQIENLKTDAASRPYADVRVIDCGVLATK

PPWD1 = target: T2, PPWD1 (Homo sapiens, UniProt Q96BP3); type: biochemical;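 for PPWD1 prolyl-isomerase raw dose-response reading (Fig. 6c): Per-well observed rate constant from one-phase association fit in s−1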
T2 construct: PPWD1 (UniProtKB Entry Q96BP3: residues 473–646); host or cells: E. coli BL21(DE3)
T2 sequence (Q96BP3 473-646): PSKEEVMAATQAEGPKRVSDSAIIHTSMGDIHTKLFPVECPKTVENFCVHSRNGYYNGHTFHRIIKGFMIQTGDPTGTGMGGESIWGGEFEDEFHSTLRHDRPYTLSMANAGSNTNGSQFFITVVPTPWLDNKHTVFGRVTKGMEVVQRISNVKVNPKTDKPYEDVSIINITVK

[1] = Wild-Type Cyclophilin Prolyl Isomerase Inhibition IC50 Values, CypD, wild-type CypD
[2] = Wild-Type Cyclophilin Prolyl Isomerase Inhibition IC50 Values, Cyp40, wild-type Cyp40
[3] = wild-type NKTR, read-out: Wild-Type Cyclophilin Prolyl Isomerase Inhibition IC50 Values, NKTR
[4] = wild-type PPWD1, read-out: Wild-Type Cyclophilin Prolyl Isomerase Inhibition IC50 Values, PPWD1

With NC(=O)C1CCNC(=O)C=CC(=O)N2CCCC(Cc3ccccc3)(C2)C(=O)NC(Cc2ccc(-c3ccc(C=O)c(B(O)O)c3)cc2)C(=O)NCc2ccccc2CC(=O)N1 (stereo not shown) [Compound C3A] the IC50 (CypD) was 0.6 ± 0.1 µM, the “CypD prolyl-isomerase raw dose-response reading (Fig. 6c)” value (CypD; Dose 0.00114312 µM) was 0.06909 and 0.06564 and 0.08467 and the “CypD prolyl-isomerase raw dose-response reading (Fig. 6c)” value (CypD; Dose 0.00342936 µM) was 0.0763 and 0.06566 and 0.07012. For the same compound, the “CypD prolyl-isomerase raw dose-response reading (Fig. 6c)” value (CypD; Dose 0.00457247 µM) was 0.04911 and 0.0434 and 0.06663 and 0.05943 and 0.05791 and 0.04481, the “CypD prolyl-isomerase raw dose-response reading (Fig. 6c)” value (CypD; Dose 0.0102881 µM) was 0.06833 and 0.05597 and 0.06694 and the “CypD prolyl-isomerase raw dose-response reading (Fig. 6c)” value (CypD; Dose 0.0308642 µM) was 0.07034 and 0.05622 and 0.06. The “CypD prolyl-isomerase raw dose-response reading (Fig. 6c)” value (CypD; Dose 0.0411523 µM) was 0.05515 and 0.05553 and 0.04718 and 0.06514 and 0.05753 and 0.05809 and 0.04157, the “CypD prolyl-isomerase raw dose-response reading (Fig. 6c)” value (CypD; Dose 0.0925926 µM) was 0.06297 and 0.05517 and 0.06275 and the “CypD prolyl-isomerase raw dose-response reading (Fig. 6c)” value (CypD; Dose 0.277778 µM) was 0.05848 and 0.04977 and 0.05604. For the same compound, the “CypD prolyl-isomerase raw dose-response reading (Fig. 6c)” value (CypD; Dose 0.833333 µM) was 0.04291 and 0.04333 and 0.04298, the “CypD prolyl-isomerase raw dose-response reading (Fig. 6c)” value (CypD; Dose 2.5 µM) was 0.03189 and 0.02949 and 0.03114 and the IC50 (CypD; IC50 CypD, Independent replicate 1, mean±SEM of 3 technical replicates) was 0.7 ± 0.3 µM. It also gave an IC50 (CypD; IC50 CypD, Independent replicate 2) of 0.6 ± 0.3 µM, an IC50 (CypD; IC50 CypD, Independent replicate 3) of 0.41 ± 0.08 µM and an IC50 (CypD; IC50 CypD, Independent replicate 4) of roughly 0.7 µM. For the same compound, the IC50 (CypD; [1]) was 0.6 µM, the “Cyp40 prolyl-isomerase raw dose-response reading (Fig. 6c)” value (Cyp40; Dose 0.00457247 µM) was 0.0614 and 0.06993 and 0.05711 and the “Cyp40 prolyl-isomerase raw dose-response reading (Fig. 6c)” value (Cyp40; Dose 0.0137174 µM) was 0.05865 and 0.05903 and 0.06506. The “Cyp40 prolyl-isomerase raw dose-response reading (Fig. 6c)” value (Cyp40; Dose 0.0411523 µM) was 0.05035 and 0.06856 and 0.04615, the “Cyp40 prolyl-isomerase raw dose-response reading (Fig. 6c)” value (Cyp40; Dose 0.123457 µM) was 0.06664 and 0.05611 and 0.06364 and the “Cyp40 prolyl-isomerase raw dose-response reading (Fig. 6c)” value (Cyp40; Dose 0.37037 µM) was 0.05889 and 0.05946 and 0.05108. For the same compound, the “Cyp40 prolyl-isomerase raw dose-response reading (Fig. 6c)” value (Cyp40; Dose 1.11111 µM) was 0.05961 and 0.05287 and 0.0489, the “Cyp40 prolyl-isomerase raw dose-response reading (Fig. 6c)” value (Cyp40; Dose 3.33333 µM) was 0.034 and 0.04378 and 0.03695 and the “Cyp40 prolyl-isomerase raw dose-response reading (Fig. 6c)” value (Cyp40; Dose 10 µM) was 0.03483 and 0.03698 and 0.03412. It also gave an IC50 (Cyp40; IC50 Cyp40, Independent replicate 1) of 3 ± 1 µM, an IC50 (Cyp40; IC50 Cyp40, Independent replicate 2) of 1.4 ± 0.5 µM and an IC50 (Cyp40; IC50 Cyp40, Independent replicate 3) of 1.4 ± 0.3 µM. The IC50 (Cyp40; IC50 Cyp40, Independent replicate 4) was 1.9 ± 0.5 µM, the IC50 (Cyp40; [2]) was 1.8 µM and the “NKTR prolyl-isomerase raw dose-response reading (Fig. 6c)” value (NKTR; Dose 0.00457247 µM) was 0.03021 and 0.03304 and 0.03422. The “NKTR prolyl-isomerase raw dose-response reading (Fig. 6c)” value (NKTR; Dose 0.0137174 µM) was 0.0282 and 0.04075 and 0.02833, the “NKTR prolyl-isomerase raw dose-response reading (Fig. 6c)” value (NKTR; Dose 0.0411523 µM) was 0.03114 and 0.03658 and 0.02835 and the “NKTR prolyl-isomerase raw dose-response reading (Fig. 6c)” value (NKTR; Dose 0.123457 µM) was 0.03167 and 0.03382 and 0.0302. The “NKTR prolyl-isomerase raw dose-response reading (Fig. 6c)” value (NKTR; Dose 0.37037 µM) was 0.03191 and 0.03367 and 0.02844, the “NKTR prolyl-isomerase raw dose-response reading (Fig. 6c)” value (NKTR; Dose 1.11111 µM) was 0.03612 and 0.0297 and 0.03587 and the “NKTR prolyl-isomerase raw dose-response reading (Fig. 6c)” value (NKTR; Dose 3.33333 µM) was 0.03487 and 0.03208 and 0.0346. The “NKTR prolyl-isomerase raw dose-response reading (Fig. 6c)” value (NKTR; Dose 10 µM) was 0.02874 and 0.02696 and 0.02891, the IC50 (NKTR; Independent replicate 1, read-out: IC50 NKTR) was greater than 10 µM and the IC50 (NKTR; Independent replicate 2, read-out: IC50 NKTR) was roughly 30 µM. The IC50 (NKTR; Independent replicate 3, read-out: IC50 NKTR) was roughly 30 µM, the IC50 (NKTR; Independent replicate 4, read-out: IC50 NKTR) was roughly 40 µM and the IC50 (NKTR; [3]) was 33 µM. The “PPWD1 prolyl-isomerase raw dose-response reading (Fig. 6c)” value (PPWD1; Dose 0.00457247 µM) was 0.0469 and 0.04534 and 0.05629, the “PPWD1 prolyl-isomerase raw dose-response reading (Fig. 6c)” value (PPWD1; Dose 0.0137174 µM) was 0.04565 and 0.04397 and 0.06065 and the “PPWD1 prolyl-isomerase raw dose-response reading (Fig. 6c)” value (PPWD1; Dose 0.0411523 µM) was 0.05156 and 0.0487 and 0.05013. The “PPWD1 prolyl-isomerase raw dose-response reading (Fig. 6c)” value (PPWD1; Dose 0.123457 µM) was 0.04255 and 0.04648 and 0.048, the “PPWD1 prolyl-isomerase raw dose-response reading (Fig. 6c)” value (PPWD1; Dose 0.37037 µM) was 0.04707 and 0.04395 and 0.05999 and the “PPWD1 prolyl-isomerase raw dose-response reading (Fig. 6c)” value (PPWD1; Dose 1.11111 µM) was 0.04661 and 0.0432 and 0.04546. The “PPWD1 prolyl-isomerase raw dose-response reading (Fig. 6c)” value (PPWD1; Dose 3.33333 µM) was 0.03786 and 0.03919 and 0.04546, the “PPWD1 prolyl-isomerase raw dose-response reading (Fig. 6c)” value (PPWD1; Dose 10 µM) was 0.02858 and 0.03234 and 0.0406 and the “PPWD1 prolyl-isomerase raw dose-response reading (Fig. 6c)” value (PPWD1; Dose 16.6667 µM) was 0.02581 and 0.0305 and 0.02503 and 0.03058 and 0.01822 and 0.02069 and 0.01922 and 0.02384. The IC50 (PPWD1; Independent replicate 1, read-out: IC50 PPWD1) was greater than 10 µM, the IC50 (PPWD1; Independent replicate 2, read-out: IC50 PPWD1) was 8 ± 4 µM and the IC50 (PPWD1; Independent replicate 3, read-out: IC50 PPWD1) was 6 ± 2 µM. It also gave an IC50 (PPWD1; Independent replicate 4, read-out: IC50 PPWD1) of 9 ± 3 µM, an IC50 (PPWD1; prolyl-isomerase inhibition, 5 nM cyclophilin, read-out: IC50 PPWD1) of 8 ± 2 µM and an IC50 (PPWD1; [4]) of 8 µM.
In the case of NCCOCCNC(=O)C1CCNC(=O)C=CC(=O)N2CCCC(C2)C(=O)NC(Cc2ccco2)C(=O)NCc2ccccc2CC(=O)N1 (stereo not shown) [JOMBt], the IC50 (CypD) is reported as 17 µM, the IC50 (CypD; IC50 CypD trans, trans olefin isomer) is reported as 17 ± 2 µM and the IC50 (CypD; [1]) is reported as 17 µM. The IC50 (Cyp40; [2]) was 19 µM, the IC50 (NKTR; prolyl-isomerase inhibition, 5 nM cyclophilin, read-out: IC50 NKTR) was roughly 60 µM and the IC50 (NKTR; [3]) was 60 µM. The IC50 (PPWD1; [4]) was greater than 100 µM.
